{"source": "patent US9097673B2", "about": "“Processes and kits for determining multi-drug resistance of cells” (ENZO LIFE SCIENCES, INC., priority 2010, dated 2015)", "key": {"HeLa cell line [1]": {"tested_on": "HeLa cell line", "assay": "Dye uptake flow cytometry MDR assay", "assay_type": "cell-based, human", "conditions": "HeLa, dye uptake", "procedure": "(§10) Concentrations of the modulators used in the experiments were non-toxic to the cells (based upon standard 3-(4,5-Dimethylthiazol-2-Yl)-2,5-Diphenyltetrazolium Bromide (MTT) testing, data not shown). Fluo-8™ was used in all experiments at 5 μM, and Rhod-4™—at 4 μM final concentrations."}, "CHO K1 cell line [2]": {"tested_on": "CHO K1 cell line", "assay": "Dye efflux flow cytometry MDR assay", "assay_type": "cell-based, hamster", "design": "key to D-value, Verapamil / D-value, Novobiocin: KS D value, 0 to 1; negative if control brighter than sample", "conditions": "CHO K1, dye efflux", "source_text": "(§1) Kolmogorov-Smirnov statistics measures the difference between two distribution functions and generates a D value ranging between 0 and 1.0, with higher values indicating a greater difference between the distribution functions. The D value generated by the KS statistics was modified by ascribing a negative value if the fluorescence of a negative control (no inhibitor) was brighter than the fluorescence of the sample with inhibitor. The method was one of those recommended by the First International MDR1 Methods Detection Workshop (St. Jude Children's Research Hospital, Memphis, Tenn.).\n(§2) Cells were grown in tissue culture dishes and on the day of assay they were trypsinized and washed twice with ice-cold PBS. Post-wash, the cells were re-suspended in cold phenol red indicator-free medium at a density of 1×10^6/ml. For each detection set, eighteen tubes (6 tubes without inhibitor and 3 tubes for each inhibitor tested, in triplicates) each containing 2.5-5×10^5/cells were prepared. Cells were centrifuged at 200×g for 5 min, and after discarding supernatant, re-suspended at 1×10^6/ml in ice-cold indicator-free medium containing Fluo-8™ AM or Rhod-4™ AM probes. Additionally, an aliquot of non-stained cells was prepared for background fluorescence measurements. Cells were incubated with the probe(s) on ice for 60 min, than centrifuged at 200×g for 5 min. After discarding the supernatant, cells were either washed twice with PBS or simply were spun down to remove the excess of the probe and resuspended at 5×10^5 cells/sample in 0.5 ml of following solutions:\n(§3) 1. warm (37° C.) indicator-free medium containing vehicle only (3 tubes)\n(§4) 2. warm (37° C.) indicator-free medium containing inhibitor (3 tubes for each inhibitor tested)\n(§5) 3. ice-cold indicator-free medium (3 tubes)\n(§6) Tube sets 1 and 2 were immediately transferred to a water bath (37° C.) and incubated for 90 min. Tube set 3 was kept on ice. Post incubation, 4 ml of ice-cold indicator-free medium was added per tube, tubes were centrifuged at 200×g for 5 min, supernatant was discarded, and cell pellet was re-suspended in the cold indicator-free medium and centrifuged again. Finally, cells were re-suspended in 0.5 ml of cold indicator-free medium and maintained on ice until analysis. Alternatively, cells were analyzed without washing. Flow cytometry experiments were performed as described in Example 3."}, "CHO K1 cell line [3]": {"tested_on": "CHO K1 cell line", "assay": "Dye uptake flow cytometry MDR assay", "assay_type": "cell-based, hamster", "conditions": "CHO K1, dye uptake", "procedure": "as §10"}, "A549 cell line [4]": {"tested_on": "A549 cell line", "assay": "Dye uptake flow cytometry MDR assay", "assay_type": "cell-based, human", "conditions": "A549, dye uptake", "procedure": "as §10"}, "A549 cell line [5]": {"tested_on": "A549 cell line", "assay": "Dye efflux flow cytometry MDR assay", "assay_type": "cell-based, human", "design": "key to D-value, Verapamil / D-value, Novobiocin: KS D value, 0 to 1; negative if control brighter than sample", "conditions": "A549, dye efflux", "source_text": "as §1, §2, §3, §4, §5, §6"}, "HeLa cell line [6]": {"tested_on": "HeLa cell line", "assay": "Dye efflux flow cytometry MDR assay", "assay_type": "cell-based, human", "design": "key to D-value, Verapamil / D-value, Novobiocin: KS D value, 0 to 1; negative if control brighter than sample", "source_text": "as §1, §2, §3, §4, §5, §6"}, "Hep G2 cells": {"tested_on": "Hep G2 cells", "assay": "Dye uptake flow cytometry MDR assay", "assay_type": "cell-based, human", "design": "key: Kolmogorov-Smirnov D statistic comparing fluorescence distributions", "conditions": "HepG2, dye uptake", "protocol": "(§7) Cells were grown on tissue culture dishes and on the day of assay were trypsinized and washed twice with warm (37° C.) phosphate-buffered saline (PBS). Post-wash, the cells were re-suspended in warm phenol red indicator-free medium at a density of 1×10^6/ml. For each detection set, sixteen tubes (5 samples in triplicates plus non-stained control for background fluorescence) in numbered tubes each containing 5×10^5/cells (0.5 ml) were prepared. […] After incubation for 5 min at 37° C., 0.25 ml of warm medium with Fluo-8™ AM probe (5 μM final concentration) or Rhod-4™ AM probe (2 μM final concentration) was added to each tube excluding non-stained control that receives plain medium and cells were incubated for 30 min at 37° C. and analyzed immediately by flow cytometry. In the second set of the tubes, the reaction was stopped by rapid centrifugation (1 min) at relatively low speed (200×g). After wash with ice-cold PBS and discarding the supernatant, cells were re-suspended in 0.5 ml of ice-cold medium and kept on ice until flow cytometry analysis. The third set of cells simply was spun down (1 min, 200×g) to remove the excess of the probe, resuspended in ice-cold medium and kept on ice until flow cytometry analysis.\n(§8) Flow cytometry experiments were performed using a FACS Calibur benchtop flow cytometer (BD Biosciences) equipped with a blue (488 nm) laser, and the signals were registered in the FITC (530/30 filter), PE (585/42 filter) and PerCP (670 LP filter) channels. Fluo-8™ dye fluorescence was measured in the FL1 channel, and Rhod-4™ dye fluorescence—in the FL2 channel. Flow cytometry data were analyzed by comparison of median fluorescence or using Kolmogorov-Smirnov statistics [Young, J Histochem Cytochem 25:935-941 (1977)] or by calculating MAF values (MDR Activity Factor) using the following formula: MAF=100*((MFIinh−MFI0)/MFIinh), where MFIinh and MFI0 are mean fluorescence intensity values measured in the presence and absence of inhibitor [Hollo et al., Biochem Piophys Acta. 1191:384-388 (1994)].\n(§9) Both human ileocecal colorectal carcinoma cell line HCT-8 (reported to over-express P-gp and, to a lesser extent, MRP [Hunter et al., Br J Cancer. 64:437-444 (1991); Collington et al., Biochem Pharmacol 44:417-424 (1992)] and hepatocellular carcinoma Hep G2 (reported to over-express MRP [Roelofsen et al., Gastroenterology 112:511-521 (1997), Cantz et al., Am J Physiol Gastrointest Liver Physiol. 278:G522-G531 (2000)] were obtained from ATCC. HCT-8 cells were routinely cultured in RPMI-1640 Medium with 2 mM L-glutamine, 10 mM HEPES, 1 mM sodium piruvate, 4.5 g/L glucose, 1.5 g/L sodium bicarbonate (ATCC), supplemented with 10% horse serum (ATCC) and 100 U/ml penicillin, 100 ug/ml streptomycin (Sigma-Aldrich, St. Louis, Mo.). Hep G2 cells were routinely cultured in Eagle's Minimum Essential Medium with low glucose (ATCC), supplemented with 10% heat inactivated fetal bovine serum (ATCC) and 100 U/ml penicillin, 100 ug/ml streptomycin (Sigma-Aldrich, St. Louis, Mo.). Cell cultures were maintained in a humidified incubator at 37° C., with 5% CO2 atmosphere. Stock solutions of the probes and inhibitors were prepared, as described in Examples 2 and 3. Cells were grown in tissue culture dishes and on the day of assay were treated according to a dye uptake protocol and analyzed by flow cytometry, as described in Example 3."}, "HCT-8 cells": {"tested_on": "HCT-8 cells", "assay": "Dye uptake flow cytometry MDR assay", "assay_type": "cell-based, human", "design": "key: Kolmogorov-Smirnov D statistic comparing fluorescence distributions", "conditions": "HCT-8, dye uptake", "protocol": "as §7, §8, §9"}, "[7]": {"conditions": "average of three representative experiments (Table 6)"}, "[8]": {"conditions": "representative experiment (Table 8)"}, "[9]": {"conditions": "kept on ice without inhibitor (Table 9)"}, "[10]": {"conditions": "representative experiment (Table 9)"}}, "data": [{"smiles": "CC(=O)OCOC(=O)CN(CC(=O)OCOC(C)=O)Cc1cc2c(cc1OC(C)=O)Oc1cc(OC(C)=O)c(CN(CC(=O)OCOC(C)=O)CC(=O)OCOC(C)=O)cc1C21OC(=O)c2ccccc21", "note": "[Calcein AM]", "values": [{"measurement": "D-value, Fumitremorgan C", "setting": "HeLa cell line [1]; [7]", "value": 0.03}, {"measurement": "D-value, Probenecid", "setting": "HeLa cell line [1]; [7]", "value": 0.06}, {"measurement": "D-value, Verapamil", "setting": "HeLa cell line [1]; [7]", "value": 0.17}, {"measurement": "D-value, Cyclosporine A", "setting": "HeLa cell line [1]; [8]", "value": 0.14}, {"measurement": "D-value, Novobiocin", "setting": "HeLa cell line [1]; [8]", "value": 0.09}, {"measurement": "D-value, Probenecid", "setting": "HeLa cell line [1]; [8]", "value": 0.09}, {"measurement": "D-value, Verapamil", "setting": "HeLa cell line [1]; [8]", "value": 0.13}, {"measurement": "D-value, 4° C.", "setting": "CHO K1 cell line [2]; [9]", "value": 0.65}, {"measurement": "D-value, Cyclosporine A", "setting": "CHO K1 cell line [2]; [10]", "value": 0.31}, {"measurement": "D-value, Novobiocin", "setting": "CHO K1 cell line [2]; [10]", "value": 0.13}, {"measurement": "D-value, Probenecid", "setting": "CHO K1 cell line [2]; [10]", "value": 0.47}, {"measurement": "D-value, Verapamil", "setting": "CHO K1 cell line [2]; [10]", "value": 0.26}, {"measurement": "D-value, Fumitremorgan C", "setting": "CHO K1 cell line [3]; [7]", "value": 0.17}, {"measurement": "D-value, Probenecid", "setting": "CHO K1 cell line [3]; [7]", "value": 0.77}, {"measurement": "D-value, Verapamil", "setting": "CHO K1 cell line [3]; [7]", "value": 0.74}, {"measurement": "D-value, Cyclosporine A", "setting": "CHO K1 cell line [3]; [8]", "value": 0.96}, {"measurement": "D-value, Novobiocin", "setting": "CHO K1 cell line [3]; [8]", "value": 0.06}, {"measurement": "D-value, Probenecid", "setting": "CHO K1 cell line [3]; [8]", "value": 0.70}, {"measurement": "D-value, Verapamil", "setting": "CHO K1 cell line [3]; [8]", "value": 0.93}, {"measurement": "D-value, Fumitremorgan C", "setting": "A549 cell line [4]; [7]", "value": 0.04}, {"measurement": "D-value, Probenecid", "setting": "A549 cell line [4]; [7]", "value": 0.36}, {"measurement": "D-value, Verapamil", "setting": "A549 cell line [4]; [7]", "value": 0.17}, {"measurement": "D-value, Cyclosporine A", "setting": "A549 cell line [4]; [8]", "value": 0.47}, {"measurement": "D-value, Novobiocin", "setting": "A549 cell line [4]; [8]", "value": 0.03}, {"measurement": "D-value, Probenecid", "setting": "A549 cell line [4]; [8]", "value": 0.27}, {"measurement": "D-value, Verapamil", "setting": "A549 cell line [4]; [8]", "value": 0.15}, {"measurement": "D-value, 4° C.", "setting": "A549 cell line [5]; [9]", "value": 0.50}, {"measurement": "D-value, Cyclosporine A", "setting": "A549 cell line [5]; [10]", "value": 0.35}, {"measurement": "D-value, Novobiocin", "setting": "A549 cell line [5]; [10]", "value": 0.15}, {"measurement": "D-value, Probenecid", "setting": "A549 cell line [5]; [10]", "value": 0.40}, {"measurement": "D-value, Verapamil", "setting": "A549 cell line [5]; [10]", "value": 0.03}, {"measurement": "D-value, 4° C.", "setting": "HeLa cell line [6]; [9]", "value": 0.07}, {"measurement": "D-value, Cyclosporine A", "setting": "HeLa cell line [6]; [10]", "value": 0.08}, {"measurement": "D-value, Novobiocin", "setting": "HeLa cell line [6]; [10]", "value": 0.04}, {"measurement": "D-value, Probenecid", "setting": "HeLa cell line [6]; [10]", "value": 0.62}, {"measurement": "D-value, Verapamil", "setting": "HeLa cell line [6]; [10]", "value": 0.1}, {"measurement": "D-value, CyclosporinA", "setting": "Hep G2 cells", "value": 0.29}, {"measurement": "D-value, MK-571", "setting": "Hep G2 cells", "value": 0.29}, {"measurement": "D-value, Novobiocin", "setting": "Hep G2 cells", "value": 0.02}, {"measurement": "D-value, Verapamil", "setting": "Hep G2 cells", "value": 0.13}, {"measurement": "D-value, CyclosporinA", "setting": "HCT-8 cells", "value": 0.31}, {"measurement": "D-value, MK-571", "setting": "HCT-8 cells", "value": 0.16}, {"measurement": "D-value, Novobiocin", "setting": "HCT-8 cells", "value": 0.44}, {"measurement": "D-value, Verapamil", "setting": "HCT-8 cells", "value": 0.71}]}]}
